Measurements from US5591741A, “Fungicidal spiroheterocyclic derivatives” (American Cyanamid Company, priority 1993, dated 1997).

What was measured:
Phytophthora infestans = assay type: in vivo; settings: tomato, direct protectant foliar spray
Leptosphaeria nodorum = assay: Activity against wheat leafspot (LN); assay type: in vivo; settings: direct therapeutic foliar spray, 600 ppm, 6-8 days
Outline: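 Therapeutic foliar spray: compound at 600 ppm applied to single-leaf wheat (cv Norman) 24 h after inoculation with 1.5×10^6 conidia/ml. Disease control scored after 6-8 days at 22° C and 70% humidity as lesions per leaf versus untreated or diluent-sprayed controls.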

Venturia inaequalis = assay: Activity against apple scab in-vitro (VII); assay type: cell-based; settings: 10 ppm, 10 days, 20° C., mycelial growth
Outline: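 V. inaequalis propagules (5×10^4/ml, malt agar-grown) were exposed in half-strength PDB to 10 ppm final test compound delivered in acetone. Growth was scored after incubation for 10 days at 20° C, as a rating relative to untreated or diluent-sprayed controls.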

Pyricularia oryzae = assay type: in vivo; settings: rice seedlings, direct therapeutic foliar spray, 600 ppm, 4-5 days
Botrytis cinerea = assay: Direct protectant activity against broad bean grey mould (BCB); assay type: in vivo; settings: direct protectant foliar spray, 600 ppm, 4 days
Outline: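 Protectant foliar test: lesion coverage assessed 4 days after inoculation and rated relative to untreated or diluent-sprayed plants. Compound applied at 600 ppm to cv The Sutton leaves 24 h before 10^6 conidia/ml suspension; incubation at 22 °C in high humidity.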

[1] = test system: Pseudocercosporella herpotrichoides; assay: Activity against wheat eyespot in-vitro (PHI); assay type: cell-based; settings: 10 ppm, 10 days, 20° C., mycelial growth
Outline: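 Mycelial growth was scored after 10 days at 20 °C against untreated or diluent controls. The broth was half-strength potato dextrose, holding 10 ppm test compound (from acetone) and 5×10^4 fragments/ml of the eyespot fungus.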

Alternaria solani = assay: Activity against tomato early blight (AS); assay type: in vivo; settings: Table VI; tomato seedlings, contact prophylactic foliar spray, 4 days
Outline: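 Plants were challenged with A. solani conidia (10^4 spores/ml) 24 h after a protective foliar spray of compound in 50:50 acetone/water plus 0.04% Tween 20. Held humid at 21° C for 4 days, then percent leaf area with lesions was scored as a rating relative to controls.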

[2] = test system: Erysiphe graminis f.sp. hordei; assay: Direct protectant activity against barley powdery mildew (EGP); assay type: in vivo; settings: direct protectant foliar spray, 8 days
Outline: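 Rating reflects percentage of leaf area with sporulation compared with untreated or diluent-sprayed controls. Protectant spray was applied to single-leaf barley (cv Golden Promise) 24 h before conidia inoculation. Plants were kept at 18 °C and 40% RH throughout, with 8 days of disease development.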

[3] = test system: Erysiphe graminis f.sp. hordei; assay: Activity against barley powdery mildew, direct therapeutic (EGT); assay type: in vivo; settings: direct therapeutic foliar spray, 600 ppm, up to 7 days
Outline: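 A curative spray at 600 ppm was applied to single-leaf Golden Promise barley inoculated with powdery mildew conidia the previous day. After up to 7 days at 18 °C and 40% humidity, disease control was rated from percent leaf area sporulating relative to untreated or diluent-sprayed controls.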

Plasmopara viticola = assay: Antisporulant activity against vine downy mildew (PVA); assay type: in vivo; settings: vine leaves, antisporulant foliar spray, 600 ppm, 750 l/ha
Outline: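 Cabernet Sauvignon vines (~8 cm) inoculated on lower leaf surfaces with 5×10^4 zoosporangia/ml, held 24 h at 21° C high humidity then 24 h glasshouse. Infected leaves sprayed underside with 600 ppm compound in 1:1 water/acetone, 0.04% Tween 20, 750 l/ha; 96 h glasshouse, 24 h humidity. Sporulating leaf area rated versus control.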

Rhizoctonia solani = assay: Activity against Rhizoctonia in-vitro (RSI); assay type: cell-based; settings: 10 ppm, 10 days, 20° C., mycelial growth
Outline: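 Compound at a final 10 ppm (acetone vehicle) in half-strength PDB, inoculated with 5×10^4 fragments/ml of shaken-culture R. solani mycelium. After incubation at 20° C for 10 days, growth scored as a rating versus untreated or diluent-treated controls.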

| SMILES | disease control rating PIP (Phytophthora infestans) | disease control rating LN (Leptosphaeria nodorum) | disease control rating VII (Venturia inaequalis) | disease control rating PO (Pyricularia oryzae) | disease control rating BCB (Botrytis cinerea) | disease control rating PHI [1] | disease control rating AS (Alternaria solani) | disease control rating EGP [2] | disease control rating EGT [3] | disease control rating PVA (Plasmopara viticola) | disease control rating RSI (Rhizoctonia solani) |
| --- | --- | --- | --- | --- | --- | --- | --- | --- | --- | --- | --- |
| c1ccc(C2CCC3(CC2)CC(NC2CCCCC2)CO3)cc1 (stereo not drawn) [Compound 56] | 0 (less than 50% disease control) | 2 (greater than 80% disease control) | 1 (about 50-80% disease control) | 0 (less than 50% disease control) | 2 (greater than 80% disease control) | 0 (less than 50% disease control) | 0 (less than 50% disease control) | 2 (greater than 80% disease control) | 2 (greater than 80% disease control) | 0 (less than 50% disease control) | 0 (less than 50% disease control) |
| CCCN(CCC1CCCCC1)C1COC2(CCC(C(C)(C)C)CC2)C1 (stereo not drawn) [Compound 119] | 0 (less than 50% disease control) | 0 (less than 50% disease control) | 1 (about 50-80% disease control) | 0 (less than 50% disease control) | 0 (less than 50% disease control) | 1 (about 50-80% disease control) | 0 (less than 50% disease control) | 2 (greater than 80% disease control) | 2 (greater than 80% disease control) | 0 (less than 50% disease control) | 0 (less than 50% disease control) |
| CCCCCN(CC(C)C)C1COC2(CCC(C(C)(C)C)CC2)C1 (stereo not drawn) [Compound 75] | 0 (less than 50% disease control) | 0 (less than 50% disease control) | 0 (less than 50% disease control) | 0 (less than 50% disease control) | 2 (greater than 80% disease control) | 0 (less than 50% disease control) | 0 (less than 50% disease control) | 2 (greater than 80% disease control) | 2 (greater than 80% disease control) | 0 (less than 50% disease control) | 0 (less than 50% disease control) |
| CC(C)CNC1COC2(CCC(C(C)(C)C)CC2)C1 (stereo not drawn) [Compound 66] | 0 (less than 50% disease control) | 0 (less than 50% disease control) | 0 (less than 50% disease control) | 0 (less than 50% disease control) | 2 (greater than 80% disease control) | 0 (less than 50% disease control) | 0 (less than 50% disease control) | 2 (greater than 80% disease control) | 2 (greater than 80% disease control) | 0 (less than 50% disease control) | 0 (less than 50% disease control) |
| CC1CCCCN1C1COC2(CCC(C(C)(C)C)CC2)C1 (stereo not drawn) [Compound 17] | 0 (less than 50% disease control) | 0 (less than 50% disease control) | 0 (less than 50% disease control) | 0 (less than 50% disease control) | 0 (less than 50% disease control) | 0 (less than 50% disease control) | 0 (less than 50% disease control) | 2 (greater than 80% disease control) | 2 (greater than 80% disease control) | 0 (less than 50% disease control) | 0 (less than 50% disease control) |
| CCCCCCCCCCNC1COC2(CCC(C(C)(C)C)CC2)C1 (stereo not drawn) [Compound 42] | 0 (less than 50% disease control) | 0 (less than 50% disease control) | 2 (greater than 80% disease control) | 0 (less than 50% disease control) | 0 (less than 50% disease control) | 1 (about 50-80% disease control) | 0 (less than 50% disease control) | 2 (greater than 80% disease control) | 2 (greater than 80% disease control) | 0 (less than 50% disease control) | 0 (less than 50% disease control) |
| CCCCCCNCC1COC2(CCC(C(C)(C)C)CC2)C1 (stereo not drawn) [Compound 184, 8-t-butyl-3-n-hexylaminomethyl-1-oxaspiro(4,5)decane] | 0 (less than 50% disease control) | 0 (less than 50% disease control) | 2 (greater than 80% disease control) | 0 (less than 50% disease control) | 2 (greater than 80% disease control) | 1 (about 50-80% disease control) | 0 (less than 50% disease control) | 2 (greater than 80% disease control) | 2 (greater than 80% disease control) | 0 (less than 50% disease control) | 2 (greater than 80% disease control) |
| CC(C)(C)C1CCC2(CC1)CC(N)CO2 (stereo not drawn) [Compound 97, 3-amino-8-t-butyl-1-oxaspiro(4,5)-decane] | 2 (greater than 80% disease control) | 0 (less than 50% disease control) | 0 (less than 50% disease control) | 0 (less than 50% disease control) | 0 (less than 50% disease control) | 0 (less than 50% disease control) | 0 (less than 50% disease control) | 2 (greater than 80% disease control) | 2 (greater than 80% disease control) | 0 (less than 50% disease control) | 0 (less than 50% disease control) |
| CCCCCNC1COC2(CCC(c3ccccc3)CC2)C1 (stereo not drawn) [Compound 54] | 0 (less than 50% disease control) | 0 (less than 50% disease control) | 1 (about 50-80% disease control) | 0 (less than 50% disease control) | 0 (less than 50% disease control) | 0 (less than 50% disease control) | 0 (less than 50% disease control) | 2 (greater than 80% disease control) | 2 (greater than 80% disease control) | 0 (less than 50% disease control) | 0 (less than 50% disease control) |
